Paper PMC12203697, “Bioactive constituents from the edible seaweed Halymenia hawaiiana (Rhodophyta)” (Pharmaceutical Biology, 2025)
≈ marks a conversion by molar mass, not a printed value. Read-outs that look alike come from different tables or passages of the source.

Tests used:
MRSA HBP10 = test: Antibacterial MIC, broth microdilution with resazurin; assay type: cell-based, Staphylococcus aureus; details: MRSA HBP10, Gram-positive
From the text: (§1) Methicillin-resistant Staphylococcus aureus (MRSA), methicillin-susceptible S. aureus (MSSA), and Gram-negative clinical isolates of bacteria [Escherichia coli (9637) and Serratia marcescens ATCC 13880] were used for this study. […] MSSA HBP10, MSSA LUU7, MSSA R113, S. aureus ONE9, and MSSA POB2 were isolated in Hawaiʻi (Gerken et al. [2021]). Mueller Hinton Broth (MHB, GTIN:00382902979630, Becton, Dickinson and Company, Franklin Lakes, NJ, USA) and Mueller Hinton Agar (MHA, GTIN:00382902252504, Becton, Dickinson and Company, Franklin Lakes, NJ, USA,) were used for bacterial inoculation. MRSA was a pathogen strain causing hospital-acquired infections in 1982. This strain easily acquires resistance to antibiotics, such as vancomycin. MSSA strains isolated from the Island of Hawaiʻi included: Honolʻii Beach Park (HBP10) carry the genes erm(C), aph(3′)-III, and mecA, which provide resistance to macrolide, aminoglycoside, and beta-lactam antibiotics, respectively; Wailuku River (LUU7) which contains the blaZ gene (beta-lactam resistance) (Gerken et al. [2021]). Richardson’s Beach Park (R113) and Onekahakaha (ONE9) which is known for its virulence factors (hlgA, hlgB, hlgC, lukD, and lukE).
(§2) The minimum inhibitory concentrations (MICs) were determined using a two-fold serial dilution method with MHB following the recommendations of the Clinical and Laboratory Standards Institute (CLSI [2012]; Elshikh et al. [2016]). In brief, serial two-fold dilutions of the samples in DMSO were mixed with MHB in a 96-well microplate. Then, 50 µL of bacteria suspension was added to each well, resulting in a final concentration of 1 × 10^4 colony-forming units/well. The plates were incubated at 35–37 °C for 18–24 hr. After incubation, 10 µL of 0.18% resazurin (Cat. No. R7017, Sigma-Aldrich, USA) was added to each well (Elshikh et al. [2016]). The MIC was assessed within 2–3 hr after the addition of resazurin. All antimicrobial assays were performed in triplicate, using vancomycin (Cat. No. SBR00001, Sigma-Aldrich, USA) and gentamicin (Cat. No. G1397, Sigma-Aldrich, USA) as standard controls.

S. aureus NEWMAN = test: as above; assay type: cell-based, Staphylococcus aureus; details: S. aureus NEWMAN, Gram-positive
From the text: as §1, §2

MRSA POB2 = test: as above; assay type: cell-based, Staphylococcus aureus; details: Staphylococcus aureus; MRSA POB2, Gram-positive; read-out: MIC
From the text: as §1, §2

[1] = tested on: ROS/RNS generation in RAW 264.7 cells; test: Intracellular ROS/RNS levels in LPS-induced RAW 264.7 cells (H2DCF-DA); assay type: cell-based; details: Mus musculus
Experimental: To measure the formation of intracellular ROS and RNS, we utilized the fluorogenic dye 2′,7′-dichlorodihydrofluorescein diacetate (Cat. No. 4091-99-0, H2DCF-DA, Abcam, Boston, MA, USA). This dye detects hydrogen peroxide, peroxyl radicals, and peroxynitrite anions (Kwon et al. [2019]). In brief, RAW 264.7 cells were seeded into a black 96-well plate (Cat. No. 165305, Thermo Fisher, USA) at 4 × 10^4 cells per well and incubated for 24 hr at 37 °C in 5% CO2. Afterward, the cells were treated with or without a sample for 4 hr before adding 1 μg/mL LPS (Cat. No. 00-4976-93, Thermo Fisher, USA) for 20 hr. Once this incubation was complete, the cells were washed twice with fetal bovine serum (FBS)-free media (Cat. No. A5256701, Thermo Fisher, USA) and stained with 10 μM H2DCF-DA (Cat. No. D399, Thermo Fisher, USA) in FBS-free media for 30 min at 37 °C, protected from light. Next, the dye-containing media was discarded, and the cells were washed twice with fresh serum-free media. The relative fluorescent intensity of the cells was measured using a fluorescence plate reader (Synergy H1, BioTeK, Winooski, VT, USA) with excitation/emission at 485 nm/535 nm. Curcumin (Cat. No. C1386-5G, Millipore Sigma, Burlington, MA, USA), a natural phenolic compound with antioxidant activity, was used as positive control. All samples were tested in triplicates. A sulforhodamine B (SRB) assay was conducted to assess cellular viability under a similar experimental setup. The final percentage of inhibition of ROS/RNS generation was calibrated using the % of cell viability.

RAW 264.7 cells = test: SRB cellular viability in RAW 264.7 cells; assay type: cell-based, mouse; details: under the NO and ROS/RNS assay conditions
Experimental: The nitrite concentration in the culture medium was measured to indicate nitric oxide (NO) production as previously described (Min et al. [2009]). The murine macrophage RAW 264.7 cell line was obtained from ATCC, Manassas, VA, USA, and maintained in Dulbecco’s modified Eagle’s medium supplemented with 10% heat-inactivated FBS (Cat. No. A5670801, Gibco BRL Co, Grand Island, NY, USA), penicillin G (100 units/mL) (Cat. No. P7794, Sigma-Aldrich, USA), streptomycin (100 µg/mL) (Cat. No. S9137, Sigma-Aldrich, USA), and L-glutamine (2 mM) (Cat. No. 25030081, Gibco BRL Co, Grand Island, NY, USA). In brief, RAW 264.7 cells were seeded at a density of 4 × 10^4 cells/well in phenol red-free media (Cat. No. 11835030, Gibco, USA) in a 96-well plate, and incubated in a humidified incubator with 5% CO2 at 37 °C for 24 hr. Following this, the cells were treated with increasing concentrations of samples ranging from 10–50 μg/mL for 4 hr, after which the cells were treated with 1 μg/mL LPS for 20 h. L-N-Monomethyl Arginine citrate (L-NMMA) (Cat. No. NC0190932, Cayman Chemical, Michigan, USA), a non-selective inhibitor of NOS, was used as positive control. The concentration of nitric oxide production was assessed using the Griess reagent, which consists of a 1:1 (v/v) mixture of 1% sulfanilamide (Cat No. A13001, Alfa Aesar, Massachusetts, USA) in H3PO4 and N-(1-naphthyl)ethylenediamine dihydrochloride (Cat. No. 102397, MP Biomedicals, USA). Absorbance was recorded with a microplate reader (SynergyMx, BioTeK, Winooski, VT, USA) at 540 nm. A standard curve was created using sodium nitrite (1–100 μM) (Cat. No. 44227, Alfa Aesar, Massachusetts, USA). […]
To measure the formation of intracellular ROS and RNS, we utilized the fluorogenic dye 2′,7′-dichlorodihydrofluorescein diacetate (Cat. No. 4091-99-0, H2DCF-DA, Abcam, Boston, MA, USA). […] The relative fluorescent intensity of the cells was measured using a fluorescence plate reader (Synergy H1, BioTeK, Winooski, VT, USA) with excitation/emission at 485 nm/535 nm. […]

[2] = Staphylococcus aureus, read-out: MIC
[3] = RAW264.7, read-out: IC50, inhibition of LPS-induced ROS/RNS generation

For Nc1ccn([C@H]2C[C@H](O)[C@@H](CO)O2)c(=O)n1 [Compound 1, deoxycytidine], the MIC (MRSA HBP10; [2]) was 128 µg/mL (≈ 563 µM), the MIC (S. aureus NEWMAN; [2]) was 128 µg/mL (≈ 563 µM) and the MIC (MRSA POB2) was 128 µg/mL (≈ 563 µM).
With CC(C)CCC[C@@H](C)[C@H]1CC[C@H]2[C@@H]3CC=C4C[C@@H](O)CC[C@]4(C)[C@H]3CC[C@]12C [Compound 9, cholesterol] the IC50 ([1]; RAW264.7, RAW 264.7 cells, H2DCF-DA dye, LPS 1 μg/mL, read-out: IC50, inhibition of LPS-induced ROS/RNS generation) was 55 ± 4.1 µM, the MIC (MRSA HBP10; [2]) was 128 µg/mL (≈ 331 µM) and the MIC (S. aureus NEWMAN; [2]) was 64 µg/mL (≈ 166 µM). The MIC (MRSA POB2) was 128 µg/mL (≈ 331 µM) and the “cytotoxicity in RAW 264.7 cells (in words)” value (shortened to “cytotoxicity”) (RAW 264.7 cells) was “without inducing cytotoxicity”.
For CC(C)CCC[C@@H](C)[C@H]1CCC2[C@@]34C=C[C@]5(C[C@@H](O)CC[C@]5(C)C3CC[C@@]21C)OO4 (stereo partly shown) [Compound 10, 7-dehydrochoresterol peroxide], the IC50 [1, 3] was 65 ± 4.8 µM, the MIC (MRSA HBP10) was 32 µg/mL (≈ 76.8 µM) and the MIC (MRSA HBP10; [2]) was 32 µg/mL (≈ 76.8 µM). For the same compound, the MIC (S. aureus NEWMAN) was 8 µg/mL (≈ 19.2 µM), the MIC (S. aureus NEWMAN; [2]) was 8 µg/mL (≈ 19.2 µM) and the MIC (MRSA POB2) was 128 µg/mL (≈ 307 µM). The “cytotoxicity” value (RAW 264.7 cells) was “without inducing cytotoxicity”.
With CC(C)CCC[C@@H](C)[C@H]1CCC2[C@]1(C)CC=C1[C@]23C=C[C@]2(C[C@@H](O)CC[C@]12C)OO3 (stereo partly drawn) [Compound 11, (3β-5α-8α)5,8-epidioxycholesta-6,9(1)-diene-3-ol] the IC50 [1, 3] was 73.7 ± 6.2 µM, the MIC (MRSA HBP10) was 64 µg/mL (≈ 154 µM) and the MIC (MRSA HBP10; [2]) was 64 µg/mL (≈ 154 µM). The MIC (S. aureus NEWMAN) was 8 µg/mL (≈ 19.3 µM), the MIC (S. aureus NEWMAN; [2]) was 8 µg/mL (≈ 19.3 µM) and the MIC (MRSA POB2) was 128 µg/mL (≈ 309 µM). For the same compound, the “cytotoxicity” value (RAW 264.7 cells) was “without inducing cytotoxicity”.
